Test results: ChEMBL document CHEMBL1201862, “PubChem BioAssay data set” (2004)
Values joined by “and” are separate entries in the source; they are usually repeats but may differ in a detail not shown here. Identical values can stand only once.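 Grown in 96-well plates, cells were treated for 48 hours with each compound at five concentrations. Insufficient inhibition: endpoint recorded as highest concentration tested. GI50 = concentration required for 50% inhibition of growth.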 Active and inactive are the calls of the source. Rule as the data show it: active = GI50 up to about 1.1 µM and inactive = higher.

Columns and labels:
Test in all cases: NCI-60 cell line screen, 48 h
OVCAR-4 = tested on: OVCAR-4
SW-620 = tested on: SW-620
SNB-19 = tested on: SNB-19
Malme-3M = tested on: Malme-3M
NCI-H460 = tested on: NCI-H460
HOP-92 = tested on: HOP-92
MDA-N = tested on: MDA-N
RPMI-8226 = tested on: RPMI-8226
MDA-MB-231 = tested on: MDA-MB-231
NCI-H226 = tested on: NCI-H226
NCI-H522 = tested on: NCI-H522
Hs-578T = tested on: Hs-578T
MCF7 = tested on: MCF7
SK-MEL-28 = tested on: SK-MEL-28
NCI/ADR-RES = tested on: NCI/ADR-RES
BT-549 = tested on: BT-549
EKVX = tested on: EKVX
MOLT-4 = tested on: MOLT-4
CCRF-CEM = tested on: CCRF-CEM
RXF 393 = tested on: RXF 393

SMILES	GI50 (OVCAR-4)	GI50 (SW-620)	GI50 (SNB-19)	GI50 (Malme-3M)	GI50 (NCI-H460)	GI50 (HOP-92)	GI50 (MDA-N)	GI50 (RPMI-8226)	GI50 (MDA-MB-231)	GI50 (NCI-H226)	GI50 (NCI-H522)	GI50 (Hs-578T)	GI50 (MCF7)	GI50 (SK-MEL-28)	GI50 (NCI/ADR-RES)	GI50 (BT-549)	GI50 (EKVX)	GI50 (MOLT-4)	GI50 (CCRF-CEM)	GI50 (RXF 393)
C=CCN(c1cc(OC)c2c(c1[N+](=O)[O-])C(C)(SC)C(=O)N2)S(C)(=O)=O (stereo not drawn)	47.8 µM (inactive)	> 100 µM (inactive)	96.6 µM (inactive)	97.5 µM (inactive)	> 100 µM (inactive)	32.5 µM (inactive)	> 100 µM (inactive)	94 µM (inactive)	> 100 µM (inactive)	> 100 µM (inactive)	82.2 µM (inactive)	55.5 µM (inactive)	> 100 µM (inactive)	> 100 µM (inactive)	> 100 µM (inactive)	> 100 µM (inactive)	–	–	–	–
CSc1csc(-c2ccc(-c3ccc(-c4cc(SC)cs4)s3)s2)c1	> 100 µM (inactive)	> 100 µM (inactive)	> 100 µM (inactive)	> 100 µM (inactive)	> 100 µM (inactive)	–	> 100 µM (inactive)	> 100 µM (inactive)	> 100 µM (inactive)	> 100 µM (inactive)	–	> 100 µM (inactive)	> 100 µM (inactive)	> 100 µM (inactive)	> 100 µM (inactive)	> 100 µM (inactive)	> 100 µM (inactive)	> 100 µM (inactive)	> 100 µM (inactive)	–
Cc1ccc(/C=C2\CCS(=O)(=O)c3ccccc3C2=O)cc1	15 µM (inactive)	18.1 µM (inactive)	16.1 µM (inactive)	–	14.8 µM (inactive)	15 µM (inactive)	28 µM (inactive)	31.4 µM (inactive)	16.9 µM (inactive)	16.6 µM (inactive)	–	37.4 µM (inactive)	11.9 µM (inactive)	17.8 µM (inactive)	11.5 µM (inactive)	17.5 µM (inactive)	17.6 µM (inactive)	9.1 µM (inactive)	13.8 µM (inactive)	22.7 µM (inactive)
Nc1ncnc2c1ncn2C(=O)NC12CC3CC(CC(C3)C1)C2	> 100 µM (inactive)	> 100 µM (inactive)	> 100 µM (inactive)	> 100 µM (inactive)	> 100 µM (inactive)	> 100 µM (inactive)	> 100 µM (inactive)	> 100 µM (inactive)	> 100 µM (inactive)	> 100 µM (inactive)	–	> 100 µM (inactive)	> 100 µM (inactive)	> 100 µM (inactive)	> 100 µM (inactive)	> 100 µM (inactive)	> 100 µM (inactive)	> 100 µM (inactive)	44 µM (inactive)	> 100 µM (inactive)
CC(C)=CCC[C@](C)(O[C@@H]1O[C@H](CO)[C@@H](O)[C@H](O)[C@H]1O)[C@H]1CC[C@]2(C)[C@@H]1[C@H](O)C[C@@H]1[C@@]3(C)CC[C@H](O)C(C)(C)[C@@H]3[C@@H](O[C@@H]3O[C@H](CO)[C@@H](O)[C@H](O)[C@H]3O)C[C@]12C [GINSENOSIDE RG1]	> 100 µM (inactive)	> 100 µM (inactive)	> 100 µM (inactive)	> 100 µM (inactive)	> 100 µM (inactive)	> 100 µM (inactive)	> 100 µM (inactive)	> 100 µM (inactive)	> 100 µM (inactive)	> 100 µM (inactive)	> 100 µM (inactive)	> 100 µM (inactive)	> 100 µM (inactive)	> 100 µM (inactive)	–	> 100 µM (inactive)	> 100 µM (inactive)	–	> 100 µM (inactive)	> 100 µM (inactive)
C=C1c2ccccc2Oc2nc3nc(N)c(C#N)c(N)c3c(N)c21	42.6 µM (inactive)	30.5 µM (inactive)	40.7 µM (inactive)	22.8 µM (inactive)	16 µM (inactive)	55.2 µM (inactive)	38.4 µM (inactive)	24.4 µM (inactive)	47.6 µM (inactive)	20.1 µM (inactive)	–	21.9 µM (inactive)	14.6 µM (inactive)	41.8 µM (inactive)	28.4 µM (inactive)	39.9 µM (inactive)	11.9 µM (inactive)	23.7 µM (inactive)	23.7 µM (inactive)	58.1 µM (inactive)
Oc1ccc(-c2cc(-c3c(O)cc(O)cc3O)on2)cc1	> 100 µM (inactive)	65.6 µM (inactive)	91.2 µM (inactive)	70.5 µM (inactive)	40.3 µM (inactive)	–	50.2 µM (inactive)	44.9 µM (inactive)	> 100 µM (inactive)	70.8 µM (inactive)	51.6 µM (inactive)	38.2 µM (inactive)	89.5 µM (inactive)	52.8 µM (inactive)	> 100 µM (inactive)	54.5 µM (inactive)	62.7 µM (inactive)	38.5 µM (inactive)	23.2 µM (inactive)	–
C=CC(CCc1ccc(C(=O)OCC)cc1)c1c(N)nc(N)[nH]c1=O (stereo not drawn)	27.2 µM (inactive)	> 100 µM (inactive)	> 100 µM (inactive)	89.9 µM (inactive)	> 100 µM (inactive)	12.6 µM (inactive)	76.6 µM (inactive)	44.8 µM (inactive)	> 100 µM (inactive)	84.9 µM (inactive)	–	> 100 µM (inactive)	87.7 µM (inactive)	> 100 µM (inactive)	> 100 µM (inactive)	> 100 µM (inactive)	–	59.4 µM (inactive)	73.3 µM (inactive)	> 100 µM (inactive)
O=C(NCCNCCO)N/N=C/c1ccc(Cl)cc1	–	> 100 µM (inactive)	> 100 µM (inactive)	> 100 µM (inactive)	> 100 µM (inactive)	–	> 100 µM (inactive)	–	> 100 µM (inactive)	> 100 µM (inactive)	> 100 µM (inactive)	> 100 µM (inactive)	> 100 µM (inactive)	> 100 µM (inactive)	> 100 µM (inactive)	> 100 µM (inactive)	–	> 100 µM (inactive)	> 100 µM (inactive)	–
CN(CCNC(=O)c1cn(C)c2c1ccc1ccccc12)CCNC(=O)c1cn(C)c2c1ccc1ccccc12	5.62 µM (inactive)	2.7 µM (inactive)	3.57 µM (inactive)	2.14 µM (inactive)	1.85 µM (inactive)	2.07 µM (inactive)	2.22 µM (inactive)	2.59 µM (inactive)	1.47 µM (inactive)	5.55 µM (inactive)	–	2.18 µM (inactive)	1.51 µM (inactive)	1.97 µM (inactive)	7.82 µM (inactive)	1.26 µM (inactive)	2.37 µM (inactive)	2.55 µM (inactive)	2.44 µM (inactive)	–
CC(=O)C(C)C(=O)N1C(=O)N(C)C2(C)N(C)C(=O)NC12C (stereo not drawn)	> 100 µM (inactive)	–	> 100 µM (inactive)	> 100 µM (inactive)	> 100 µM (inactive)	> 100 µM (inactive)	> 100 µM (inactive)	> 100 µM (inactive)	> 100 µM (inactive)	–	> 100 µM (inactive)	> 100 µM (inactive)	> 100 µM (inactive)	> 100 µM (inactive)	> 100 µM (inactive)	> 100 µM (inactive)	> 100 µM (inactive)	–	–	–
Cc1cccc(NC(=S)Nc2cccc(Cl)c2)n1	> 100 µM (inactive)	> 100 µM (inactive)	> 60.4 µM (inactive)	> 100 µM (inactive)	> 100 µM (inactive)	–	> 100 µM (inactive)	> 100 µM (inactive)	> 100 µM (inactive)	> 56.9 µM (inactive)	49.9 µM (inactive)	> 65.3 µM (inactive)	> 100 µM (inactive)	> 100 µM (inactive)	> 96.4 µM (inactive)	> 100 µM (inactive)	> 100 µM (inactive)	> 100 µM (inactive)	> 100 µM (inactive)	29.7 µM (inactive)
CSC(=O)c1sc(SC)[n+](-c2ccccc2)c1O	12.1 µM (inactive)	15.5 µM (inactive)	19.6 µM (inactive)	21.6 µM (inactive)	27.9 µM (inactive)	–	17 µM (inactive)	21.5 µM (inactive)	11.3 µM (inactive)	22.5 µM (inactive)	10.4 µM (inactive)	28.3 µM (inactive)	25.4 µM (inactive)	17.7 µM (inactive)	30.3 µM (inactive)	15.1 µM (inactive)	> 10 µM (inactive)	11.1 µM (inactive)	8.28 µM (inactive)	14.5 µM (inactive)
CNC(=S)N/N=C(\C)c1ccc(OC)cc1O	28.1 µM (inactive)	> 100 µM (inactive)	> 100 µM (inactive)	> 100 µM (inactive)	> 100 µM (inactive)	> 100 µM (inactive)	> 100 µM (inactive)	> 32 µM (inactive)	> 100 µM (inactive)	73.8 µM (inactive)	2.72 µM (inactive)	> 89.9 µM (inactive)	–	> 100 µM (inactive)	28.8 µM (inactive)	> 100 µM (inactive)	82.6 µM (inactive)	3.33 µM (inactive)	0.865 µM (active)	> 100 µM (inactive)
O=c1c(Cl)c(Cl)cnn1-c1ccccc1	2.19 µM (inactive) and 1.53 µM (inactive)	–	–	3.46 µM (inactive) and 3.02 µM (inactive)	2.92 µM (inactive) and 3.72 µM (inactive)	–	2.14 µM (inactive) and 1.81 µM (inactive)	5.92 µM (inactive) and 7.26 µM (inactive)	1.77 µM (inactive)	9.38 µM (inactive) and 9.14 µM (inactive)	1.26 µM (inactive) and 1.84 µM (inactive)	1.54 µM (inactive) and 2.56 µM (inactive)	4.07 µM (inactive) and 3.31 µM (inactive)	3.4 µM (inactive) and 2.3 µM (inactive)	2 µM (inactive)	1.8 µM (inactive) and 1.73 µM (inactive)	–	1.82 µM (inactive) and 1.47 µM (inactive)	–	1.9 µM (inactive) and 2.52 µM (inactive)
